From patent US20230330067A1, “NOVEL THIOHYDANTOIN DERIVATIVES AND USES THEREOF” (CELROS BIOTECH, priority 2020, published 2023)

Tests used:
[1] = tested on: MPTP-induced Parkinson's disease; test: MPTP-induced Parkinson's disease model mice; type: in vivo, C57BL/6 male mice
Description: In order to evaluate the effect of the compound of Example 1 against MPTP (1-methyl-4-phenyl-1,2,3,6-tetrahydropyridine hydrochloride; Sigma-Aldrich) induced Parkinson's disease, twenty-six C57BL/6 male mice (9 weeks old) were randomly divided into three groups. • (1) saline+vehicle • (2) MPTP+vehicle • (3) MPTP+compound of Example 1 (10 mg/kg) Mice were injected intraperitoneally with MPTP (15 mg/kg) 4 times at 2 hour intervals, whereas control mice were treated with the same volume of saline. The compound of Example 1 was dissolved in a vehicle containing 4% DMSO (dimethyl sulfoxide, Sigma-Aldrich) and 96% corn oil (Sigma-Aldrich). Mice received daily intraperitoneal injections of the compound of Example 1 at 10 mg/kg for 8 days from 1 day prior to MPTP injection. Dopaminergic neurons were detected using an anti-tyrosine hydroxylase antibody (1:2000-4000, abcaom) and microglia were measured using an anti-Ibal antibody (1:1000, Wako). Biotinylated goat anti-rabbit antibody (VECTOR, BA-1000) was used as secondary antibody, and ABC solution (VECTOR, BA-1000) was employed. The immunoreactive regions were then incubated with 3-3′ diaminobenzidine (DAB, Dako) to change the color to brown. Seven days post MPTP injection (one day post the final injection of the compound of Example 1), mice were sacrificed and brains thereof were recovered. The brain was sectioned coronally (thickness of 30 μm) using a cryostat (CM1850, Leica), and stored in anti-freeze solution (30% sucrose, 1% polyvinylpyrrolidone and 30% ethylene glycol in 1X PBS) at -20° C. Six coronal sections from substantia nigra (bregma −2.80 mm to −3.80 mm) and three coronal sections (bregma +0.98 mm to +0.50 mm) were collected every 150 μm, stained, and analyzed using ImagePro plus 7.0 software. Mice were subjected to the rotarod test 3 times (1 day before MPTP injection, Day 3 and Day 6 post MPTP injection) based on 3 trials/day.

BV2 cells = test: Nox inhibitory effect in BV2 cells (LPS-induced ROS generation, lucigenin chemiluminescence); type: cell-based; conditions: BV2 cells pre-treated 30 minutes, 0-10000 nM, then LPS 200 ng/ml; FIG. 3
Description: BV2 cells were washed with Hank's balanced salt solution (HBSS) and incubated in HBSS at 37° C. for 30 minutes. Then, the cells were treated with the compound (compound of Example 1 or compound of Example 2) at various concentrations (0 nM, 1 nM, 10 nM, 100 nM, 1000 nM, and 10000 nM). After 30 minutes, 200 ng/ml of lipopolysaccharide (LPS) and 200 μM of lucigenin were added to the cells. Lucigenin chemiluminescence was detected at 10 second intervals for 15 minutes using a luminometer (GLOMA, Promega).
Specifically, BV2 cells were pre-treated with Compound (A) of Example 1 or Compound (B) of Example 2 for 30 minutes and generation of reactive oxygen species (ROS) was detected after treatment with LPS (200 ng/ml). Data are expressed as mean ±SD (N=3).

human Nox1 = target: T1, human Nox1 (Homo sapiens, UniProt Q9Y5S8); test: Lucigenin chemiluminescence assay, human Nox1; type: biochemical; conditions: Drosophila membranes expressing hNox1; average of three assays
T1 construct: made in house; host or cells: transgenic Drosophila (UAS-hNox1/UAS-dDuox-RNAi; Da-GAL4/+), membranes from fly homogenate
T1 sequence (Q9Y5S8 1-564): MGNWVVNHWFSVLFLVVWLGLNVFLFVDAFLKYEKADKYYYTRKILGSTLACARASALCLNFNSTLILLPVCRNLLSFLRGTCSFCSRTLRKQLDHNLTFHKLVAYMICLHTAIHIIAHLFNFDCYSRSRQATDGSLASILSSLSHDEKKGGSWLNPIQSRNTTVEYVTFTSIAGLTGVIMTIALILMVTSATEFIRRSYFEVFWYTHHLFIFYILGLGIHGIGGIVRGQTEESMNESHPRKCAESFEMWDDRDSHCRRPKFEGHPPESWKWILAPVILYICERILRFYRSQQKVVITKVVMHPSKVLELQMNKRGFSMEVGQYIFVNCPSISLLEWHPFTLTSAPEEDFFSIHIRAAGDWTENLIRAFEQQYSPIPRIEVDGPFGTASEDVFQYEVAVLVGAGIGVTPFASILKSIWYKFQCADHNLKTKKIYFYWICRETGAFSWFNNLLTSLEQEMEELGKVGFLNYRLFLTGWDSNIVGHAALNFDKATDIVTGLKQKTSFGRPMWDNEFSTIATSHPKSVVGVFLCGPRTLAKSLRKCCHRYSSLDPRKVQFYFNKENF
From the text: Human Nox isozymes were provided from transgenic flies expressing human Nox isozymes under the daughterless (Da)-GAL4 promoter. The genotype of each fly line is shown below. • 1) Human Nox1: UAS-hNox1/UAS-dDuox-RNAi; Da-GAL4/+ • 2) Human Nox2: UAS-hNox2/UAS-dDuox-RNAi; Da-GAL4/+ • 3) Human Nox4: UAS-hNox4/UAS-dDuox-RNAi; Da-GAL4/+
Transgenic flies were homogenized with PBS containing protease inhibitors (Aprotinin and Leupeptin) to obtain Drosophila membranes of each Nox isozyme. The membranes were incubated with compounds (100 μM, 10 μM, 1 μM, 0.1 μM, 0.01 μM, 0.001 μM, and 0 μM) for 10 min on a shaker. After that, a mixture of 500 μM NADPH (beta-nicotinamide adenine dinucleotide 2′-phosphate reduced tetrasodium salt hydrate; Sigma-Aldrich) and 400 μM lucigenin (N,N′-dimethyl-9,9′-biacridinium dinitrate; Sigma-Aldrich) in 1X HEPES (4-(2-hydroxyethyl)-1-piperazineethanesulfonic acid) buffer was added to the membrane. Lucigenin chemiluminescence was detected at 1 minute intervals for 10 min using a multimode microplate reader (SpectraMax iD3, Molecular Devices). IC50 values were calculated with Graph-Pad Prism 5 (GraphPad Software).
Lucigenin chemiluminescence assays were performed with Drosophila membranes expressing hNox1, hNox2 and hNox4. The assay was repeated three times and the average of the IC50 values was determined.

SMILES: CN1C(=S)N(C2CCCCC2)C(=O)/C1=C\c1ccc(N(C)CCO)cc1 [Example 1, (E)-3-cyclohexyl-5-(4-((2-hydroxyethyl)(methyl)amino)benzylidene)-1-methyl-2-thioxoimidazolidin-4-one]
- dopaminergic neuron protection (Th+ cells in substantia nigra, Th+ fiber density in striatum) ([1]; 10 mg/kg intraperitoneal daily for 8 days, FIG. 4): protected dopaminergic neurons
- pathology of microglia (Iba1+ counts in substantia nigra and striatum) ([1]; 10 mg/kg intraperitoneal daily for 8 days, FIG. 5): improved the pathology of microglia
- motor function (rotarod test, retention time on the rod) ([1]; 10 mg/kg intraperitoneal daily, Day 3 and Day 6 post MPTP injection, FIG. 6): improved motor function
- generation of reactive oxygen species (ROS) (BV2 cells): significant inhibition of ROS generation
- IC50 (human Nox1): 1.45 µM
